The values that follow come from PubChem BioAssay (NCI).

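Cells were grown in 96-well plates and exposed to each compound for 48 hours at five concentrations; endpoints were interpolated linearly between bracketing concentrations, or set to the highest concentration if not reached. GI50 = concentration required for 50% inhibition of growth. TGI marks complete inhibition of growth.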

Some test systems named below: OVCAR-5 ovarian; NCI-H23 lung; MDA-MB-231 breast; MALME-3M melanoma; OVCAR-8 ovarian; SK-OV-3 ovarian; U251 CNS; SF-295 CNS; HOP-92 NSCLC; ACHN renal.
Holding throughout (assay): NCI-60 cell line screen, 48 h

`Cc1cccc(C(C)(C)C)c1NC(=O)C(C#N)C1=C(Cl)C(=O)c2ccccc2C1=O` (stereo not given): the TGI stood at 32 µM in the assay on OVCAR-5 ovarian; 30.2 µM with NCI-H23 lung; 27.3 µM in the assay with MDA-MB-231 breast; 31.1 µM in the assay with MALME-3M melanoma; 37.4 µM in the assay on OVCAR-8 ovarian; 40.2 µM in the assay on SK-OV-3 ovarian. Further, the TGI in the assay with U251 CNS is 31.3 µM; in the assay with SF-295 CNS it was 30.8 µM; with HOP-92 NSCLC, 9.68 µM; in the assay on ACHN renal it was 27.6 µM.

With `COc1ccc(C(=O)/C=C/c2sc(Cl)nc2Cl)cc1`, the GI50 in the assay with OVCAR-5 ovarian is 3.01 µM; in the assay on NCI-H23 lung, 0.973 µM; in the assay with MDA-MB-231 breast, 1.33 µM; with MALME-3M melanoma, 0.805 µM; with OVCAR-8 ovarian, 1.05 µM; in the assay on SK-OV-3 ovarian, 7.68 µM. Moreover, the GI50 in the assay with U251 CNS was 1.68 µM; in the assay on SF-295 CNS, 3.07 µM; in the assay with HOP-92 NSCLC it was 4.06 µM; in the assay with ACHN renal, 1.66 µM. The TGI came to 13.3 µM in the assay on OVCAR-5 ovarian; 3.39 µM in the assay on NCI-H23 lung; 4.64 µM with MDA-MB-231 breast; 3.33 µM with MALME-3M melanoma; 13.9 µM in the assay with OVCAR-8 ovarian; 23.7 µM with SK-OV-3 ovarian. In addition, the TGI in the assay with U251 CNS was determined as 3.83 µM; in the assay with SF-295 CNS, 11.7 µM; in the assay with HOP-92 NSCLC, 18 µM; in the assay on ACHN renal, 3.05 µM.

Consider `O=C(COc1ccc(/C=C2\Oc3ccc4ccccc4c3C2=O)cc1)c1ccc([N+](=O)[O-])cc1`, for which the GI50 in the assay on OVCAR-5 ovarian is 16.4 µM; in the assay on NCI-H23 lung it was 12.5 µM; in the assay with MDA-MB-231 breast, 19 µM; with MALME-3M melanoma, 13.3 µM; in the assay with OVCAR-8 ovarian it was 4.88 µM; with SK-OV-3 ovarian it was 24.2 µM. Besides, the GI50 in the assay with U251 CNS is 13.1 µM; with SF-295 CNS, 13.7 µM; with HOP-92 NSCLC it was 19.8 µM; in the assay with ACHN renal it was 28.3 µM. For the same compound, the TGI stood at 30.7 µM in the assay on OVCAR-5 ovarian; 29.4 µM in the assay with NCI-H23 lung; 71.9 µM in the assay with MDA-MB-231 breast; 39.8 µM in the assay on MALME-3M melanoma; 23.2 µM with OVCAR-8 ovarian; 73.7 µM with SK-OV-3 ovarian. Besides, the TGI in the assay on U251 CNS was found to be 25.8 µM; in the assay on SF-295 CNS, 36.4 µM; with HOP-92 NSCLC it was 69.6 µM; in the assay on ACHN renal it was 88.2 µM.

With `N#C/C(=C\c1ccc(O)c(O)c1)C(=O)NCc1ccc(C(F)(F)F)cc1`, the GI50 in the assay on OVCAR-5 ovarian was 14.2 µM; in the assay on NCI-H23 lung it was 4.54 µM; with MDA-MB-231 breast it was 2.08 µM; with MALME-3M melanoma it was 0.771 µM; in the assay on OVCAR-8 ovarian it was 10.1 µM; in the assay with SK-OV-3 ovarian it was 16.6 µM. For the same compound, the GI50 was 5.67 µM in the assay on U251 CNS, 3.39 µM in the assay on SF-295 CNS, 0.468 µM in the assay with HOP-92 NSCLC and 6.14 µM in the assay with ACHN renal. In addition, the TGI is 44.7 µM with OVCAR-5 ovarian; 18.5 µM in the assay with NCI-H23 lung; 18.1 µM in the assay with MDA-MB-231 breast; 30.7 µM in the assay with MALME-3M melanoma; more than 49.7 µM in the assay on OVCAR-8 ovarian; 61.4 µM in the assay with SK-OV-3 ovarian. The TGI was 28.9 µM with U251 CNS, 11.8 µM in the assay on SF-295 CNS, 12.3 µM with HOP-92 NSCLC and 23.9 µM in the assay on ACHN renal.

For the compound `CCn1cnc(C[C@H](NC(=O)[C@H](CCCCNC(=O)Nc2cc(C(F)(F)F)cc(C(F)(F)F)c2)NC(=O)Nc2cc(C(F)(F)F)cc(C(F)(F)F)c2)C(=O)OC)c1`, the GI50 with OVCAR-5 ovarian is more than 10 µM; with NCI-H23 lung, 5.98 µM; in the assay with MDA-MB-231 breast, 2.58 µM; in the assay with MALME-3M melanoma, more than 10 µM; with OVCAR-8 ovarian, 5.02 µM; in the assay with SK-OV-3 ovarian, more than 10 µM. For the same compound, the GI50 was 3.8 µM in the assay with U251 CNS, more than 10 µM in the assay on SF-295 CNS, 2.24 µM in the assay on HOP-92 NSCLC and 5.61 µM in the assay with ACHN renal. Also, the TGI in the assay on OVCAR-5 ovarian is more than 10 µM; in the assay with NCI-H23 lung, more than 10 µM; with MDA-MB-231 breast, 6.37 µM; in the assay with MALME-3M melanoma it was more than 10 µM; in the assay on OVCAR-8 ovarian, more than 10 µM; in the assay on SK-OV-3 ovarian it was more than 10 µM. Further, the TGI in the assay on U251 CNS was more than 10 µM; in the assay on SF-295 CNS, more than 10 µM; with HOP-92 NSCLC, 9.81 µM; in the assay on ACHN renal it was more than 10 µM.

Take `COc1ccc(-c2nn(-c3cccc(Cl)c3)cc2/C=C2\NC(=S)N(c3ccc(Cl)cc3)C2=O)cc1`: the GI50 with OVCAR-5 ovarian is 6.31 µM; in the assay on NCI-H23 lung, 3.78 µM; in the assay on MDA-MB-231 breast, 3.33 µM; in the assay on MALME-3M melanoma, 5.03 µM; with OVCAR-8 ovarian, 2.62 µM; with SK-OV-3 ovarian, 3.77 µM. In addition, the GI50 in the assay with U251 CNS is 2.86 µM; in the assay on SF-295 CNS, 4.63 µM; in the assay with HOP-92 NSCLC it was 1.84 µM; in the assay on ACHN renal it was 3.72 µM. Besides, the TGI is more than 25 µM in the assay on OVCAR-5 ovarian; 9.23 µM in the assay with NCI-H23 lung; 11.5 µM in the assay on MDA-MB-231 breast; 11.3 µM with MALME-3M melanoma; 7.02 µM in the assay with OVCAR-8 ovarian; 8.22 µM with SK-OV-3 ovarian. Also, the TGI in the assay on U251 CNS is 6.99 µM; with SF-295 CNS, 12 µM; in the assay on HOP-92 NSCLC, 8.07 µM; with ACHN renal, more than 25 µM.

Consider `Cc1cccc2c(C3=C(c4cn(C)c5ccccc45)C(=O)NC3=O)cn(C)c12`, for which the GI50 was more than 25 µM with OVCAR-5 ovarian; more than 25 µM in the assay with NCI-H23 lung; more than 19.6 µM in the assay on MDA-MB-231 breast; more than 17.8 µM in the assay on MALME-3M melanoma; 12.2 µM in the assay with OVCAR-8 ovarian; more than 22.5 µM in the assay on SK-OV-3 ovarian. Also, the GI50 in the assay with U251 CNS is more than 25 µM; in the assay with SF-295 CNS, more than 24 µM; with HOP-92 NSCLC it was 9.91 µM; in the assay with ACHN renal, 13.1 µM. In addition, the TGI with OVCAR-5 ovarian, with NCI-H23 lung, in the assay with MDA-MB-231 breast, with MALME-3M melanoma, with OVCAR-8 ovarian and in the assay with SK-OV-3 ovarian was more than 25 µM each time. The TGI with U251 CNS, in the assay with SF-295 CNS, in the assay with HOP-92 NSCLC and in the assay with ACHN renal was more than 25 µM each time.

With `CN(C)c1ccc(C(=S)c2ccc(N(C)C)cc2)cc1`, the GI50 in the assay with OVCAR-5 ovarian was 39.1 µM; in the assay on NCI-H23 lung, 7.28 µM; with MDA-MB-231 breast it was 8 µM; with MALME-3M melanoma, 5.5 µM; with OVCAR-8 ovarian it was 11.6 µM; with SK-OV-3 ovarian, 10.9 µM. Moreover, the GI50 in the assay with U251 CNS is 6.34 µM; with SF-295 CNS, 4.73 µM; in the assay on HOP-92 NSCLC, 9.01 µM; in the assay on ACHN renal, 13.4 µM. Further, the TGI in the assay with OVCAR-5 ovarian, in the assay on NCI-H23 lung, in the assay with MDA-MB-231 breast, in the assay on MALME-3M melanoma, in the assay with OVCAR-8 ovarian and with SK-OV-3 ovarian was more than 100 µM in each case. The TGI in the assay with U251 CNS was more than 100 µM; with SF-295 CNS it was more than 100 µM; in the assay with HOP-92 NSCLC, 86.8 µM; with ACHN renal, more than 100 µM.
